Article PMC5218480 (PLoS ONE, 2017)

Tested on: MV-4-11 cells
Assay: Gene expression microarray analysis (Affymetrix PrimeView) and GSEA
Type: cell-based, human
Design: RFU PODN (11730768_x_at) / Fold change /veh PODN (11730768_x_at) / RFU LINC00158 (11744669_a_at) / Fold change /veh LINC00158 (11744669_a_at) / RFU DUSP10 (11751237_a_at) / Fold change /veh DUSP10 (11751237_a_at) / RFU ID3 (11757404_x_at) / Fold change /veh ID3 (11757404_x_at) / RFU PLEKHG5 (11737974_s_at) / Fold change /veh PLEKHG5 (11737974_s_at) / RFU LRRC4B (11730491_at) / Fold change /veh LRRC4B (11730491_at) / RFU GIMAP4 (11747438_a_at) / Fold change /veh GIMAP4 (11747438_a_at) / RFU KRT8 (11758183_x_at) / Fold change /veh KRT8 (11758183_x_at) / RFU CNN1 (11734310_a_at) / Fold change /veh CNN1 (11734310_a_at) / RFU VPS37D (11726825_at) / Fold change /veh VPS37D (11726825_at) / RFU C10orf10 (11716522_x_at) / Fold change /veh C10orf10 (11716522_x_at) / RFU KIR2DL2 /// KIR2DL4 /// KIR2DL5A /// KIR2DL5B /// KIR2DS1 /// KIR2DS2 /// KIR2DS3 /// KIR2DS4 /// KIR3DL3 /// KIR3DL3 /// KIR3DS1 (11738374_at) / Fold change /veh KIR2DL2 /// KIR2DL4 /// KIR2DL5A /// KIR2DL5B /// KIR2DS1 /// KIR2DS2 /// KIR2DS3 /// KIR2DS4 /// KIR3DL3 /// KIR3DL3 /// KIR3DS1 (11738374_at) / RFU C1QL1 (11718748_at) / Fold change /veh C1QL1 (11718748_at) / RFU TMPRSS4 (11747572_a_at) / Fold change /veh TMPRSS4 (11747572_a_at) / RFU HAMP (11756126_x_at) / Fold change /veh HAMP (11756126_x_at) / RFU RNFT2 (11725882_a_at) / Fold change /veh RNFT2 (11725882_a_at) / RFU NR4A2 (11747474_a_at) / Fold change /veh NR4A2 (11747474_a_at) / RFU ABCC12 (11746883_a_at) / Fold change /veh ABCC12 (11746883_a_at) / RFU TMEM136 (11760407_x_at) / Fold change /veh TMEM136 (11760407_x_at) / RFU CLDN22 /// WWC2 (11732394_at) / Fold change /veh CLDN22 /// WWC2 (11732394_at) / RFU HLA-DPB1 (11760878_x_at) / Fold change /veh HLA-DPB1 (11760878_x_at) / RFU SPINT1 (11716480_a_at) / Fold change /veh SPINT1 (11716480_a_at) / RFU GAP43 (11754022_s_at) / Fold change /veh GAP43 (11754022_s_at) / RFU A4GNT (11735810_at) / Fold change /veh A4GNT (11735810_at) / RFU PRB3 (11715151_x_at) / Fold change /veh PRB3 (11715151_x_at) / RFU TUBB4B (11761932_at) / Fold change /veh TUBB4B (11761932_at) / RFU CAPN14 (11732068_a_at) / Fold change /veh CAPN14 (11732068_a_at) / RFU TMCC2 (11721928_a_at) / Fold change /veh TMCC2 (11721928_a_at) / RFU IRGQ (11745062_a_at) / Fold change /veh IRGQ (11745062_a_at) / RFU FAM174B (11720279_a_at) / Fold change /veh FAM174B (11720279_a_at) / RFU TMPRSS4 (11748680_a_at) / Fold change /veh TMPRSS4 (11748680_a_at) / RFU FAM212B (11763350_a_at) / Fold change /veh FAM212B (11763350_a_at) / RFU PLEKHG5 (11743358_a_at) / Fold change /veh PLEKHG5 (11743358_a_at) / RFU ZSCAN30 (11745921_a_at) / Fold change /veh ZSCAN30 (11745921_a_at) / RFU CMKLR1 (11741424_a_at) / Fold change /veh CMKLR1 (11741424_a_at) / RFU LOC101060620 /// MAPK8IP1 (11723275_at) / Fold change /veh LOC101060620 /// MAPK8IP1 (11723275_at) / RFU SPTSSB (11747773_x_at) / Fold change /veh SPTSSB (11747773_x_at) / RFU PRSS12 (11739890_at) / Fold change /veh PRSS12 (11739890_at) / RFU BIN1 (11741810_x_at) / Fold change /veh BIN1 (11741810_x_at) / RFU WNT11 (11732464_a_at) / Fold change /veh WNT11 (11732464_a_at) / RFU C10orf10 (11716521_a_at) / Fold change /veh C10orf10 (11716521_a_at) / RFU C5orf56 (11738089_at) / Fold change /veh C5orf56 (11738089_at) / RFU CYB561 (11721691_x_at) / Fold change /veh CYB561 (11721691_x_at) / RFU ANKRD19P (11752326_a_at) / Fold change /veh ANKRD19P (11752326_a_at) / RFU OR2T12 /// OR2T33 /// OR2T8 (11738714_s_at) / Fold change /veh OR2T12 /// OR2T33 /// OR2T8 (11738714_s_at) / RFU VCAN (11748164_a_at) / Fold change /veh VCAN (11748164_a_at) / RFU JSRP1 (11732532_at) / Fold change /veh JSRP1 (11732532_at) / RFU KRTAP10-11 (11738290_x_at) / Fold change /veh KRTAP10-11 (11738290_x_at) / RFU MYO3A (11730013_a_at) / Fold change /veh MYO3A (11730013_a_at) / RFU EBF3 (11725865_a_at) / Fold change /veh EBF3 (11725865_a_at) / RFU CAMK2N1 (11719241_x_at) / Fold change /veh CAMK2N1 (11719241_x_at) / RFU C5orf56 (11738088_a_at) / Fold change /veh C5orf56 (11738088_a_at) / RFU OLFML3 (11715873_a_at) / Fold change /veh OLFML3 (11715873_a_at) / RFU LOC100653217 /// NTM (11731650_a_at) / Fold change /veh LOC100653217 /// NTM (11731650_a_at) / RFU MAPK11 (11762145_a_at) / Fold change /veh MAPK11 (11762145_a_at) / RFU FIZ1 (11724087_x_at) / Fold change /veh FIZ1 (11724087_x_at) / RFU OASL (11726364_x_at) / Fold change /veh OASL (11726364_x_at) / RFU SOX15 (11748057_x_at) / Fold change /veh SOX15 (11748057_x_at) / RFU CD79A (11719716_a_at) / Fold change /veh CD79A (11719716_a_at) / RFU HIST1H1D (11736915_at) / Fold change /veh HIST1H1D (11736915_at) / RFU CASKIN2 (11723855_a_at) / Fold change /veh CASKIN2 (11723855_a_at) / RFU LOC730098 (11760151_x_at) / Fold change /veh LOC730098 (11760151_x_at) / RFU OR4N2 (11742367_at) / Fold change /veh OR4N2 (11742367_at) / RFU PRRT2 (11749266_a_at) / Fold change /veh PRRT2 (11749266_a_at) / RFU SNX32 (11753110_a_at) / Fold change /veh SNX32 (11753110_a_at) / RFU CDHR5 (11726645_a_at) / Fold change /veh CDHR5 (11726645_a_at) / RFU RCAN1 (11760418_a_at) / Fold change /veh RCAN1 (11760418_a_at) / RFU FAM167A (11723789_a_at) / Fold change /veh FAM167A (11723789_a_at) / RFU FAM26E (11764081_at) / Fold change /veh FAM26E (11764081_at) / RFU ISYNA1 (11749810_s_at) / Fold change /veh ISYNA1 (11749810_s_at) / RFU ACY1 (11761880_at) / Fold change /veh ACY1 (11761880_at) / RFU 11764098_at / Fold change /veh 11764098_at / RFU SAMD14 (11745864_x_at) / Fold change /veh SAMD14 (11745864_x_at) / RFU NPB (11741838_a_at) / Fold change /veh NPB (11741838_a_at) / RFU TMPRSS6 (11731388_a_at) / Fold change /veh TMPRSS6 (11731388_a_at) / RFU KRTAP10-2 (11738614_at) / Fold change /veh KRTAP10-2 (11738614_at) / RFU ARHGAP8 /// PRR5-ARHGAP8 (11727945_x_at) / Fold change /veh ARHGAP8 /// PRR5-ARHGAP8 (11727945_x_at) / RFU KRTAP5-7 /// NADSYN1 (11734609_at) / Fold change /veh KRTAP5-7 /// NADSYN1 (11734609_at) / RFU RASL12 (11751679_a_at) / Fold change /veh RASL12 (11751679_a_at) / RFU CDKN2B (11736163_a_at) / Fold change /veh CDKN2B (11736163_a_at) / RFU PRF1 (11729649_at) / Fold change /veh PRF1 (11729649_at) / RFU, ZNF638 /// ZNF638-IT1 / Fold change vs veh, ZNF638 /// ZNF638-IT1 / RFU, PANK3 / Fold change vs veh, PANK3 / RFU, SH3YL1 / Fold change vs veh, SH3YL1 / RFU, ZEB2 / Fold change vs veh, ZEB2 / RFU, NRIP1 / Fold change vs veh, NRIP1 / RFU, PTTG1IP / Fold change vs veh, PTTG1IP / RFU, CAPN2 / Fold change vs veh, CAPN2 / RFU, MED14 / Fold change vs veh, MED14 / RFU, SNORA58 / Fold change vs veh, SNORA58 / RFU, C1orf63 / Fold change vs veh, C1orf63 / RFU, LRRFIP1 / Fold change vs veh, LRRFIP1 / RFU, NDUFAF7 / Fold change vs veh, NDUFAF7 / RFU, SLC12A2 / Fold change vs veh, SLC12A2 / RFU, IBTK / Fold change vs veh, IBTK / RFU, ESF1 / Fold change vs veh, ESF1 / Fold change vs veh, TMEM50B / RFU, TAOK1 / Fold change vs veh, TAOK1 / RFU, ACBD3 / Fold change vs veh, ACBD3 / RFU, TMA16 / Fold change vs veh, TMA16 / RFU, RWDD3 / Fold change vs veh, RWDD3 / RFU, BCAT1 / Fold change vs veh, BCAT1 / RFU, EDEM3 / Fold change vs veh, EDEM3 / RFU, TMEM33 / Fold change vs veh, TMEM33 / RFU, WDR75 / Fold change vs veh, WDR75 / RFU, AHCTF1 / Fold change vs veh, AHCTF1 / RFU, TFRC / Fold change vs veh, TFRC / RFU, ZDHHC17 / Fold change vs veh, ZDHHC17 / RFU, NOM1 / Fold change vs veh, NOM1 / RFU, ARL8B / Fold change vs veh, ARL8B / RFU, ZBTB11 / Fold change vs veh, ZBTB11 / RFU, TAMM41 / Fold change vs veh, TAMM41 / RFU, KIAA1704 /// LOC100996395 / Fold change vs veh, KIAA1704 /// LOC100996395 / RFU, ING1 / Fold change vs veh, ING1 / RFU, TRMT61B / Fold change vs veh, TRMT61B / RFU, FUBP3 / Fold change vs veh, FUBP3 / RFU, TP53 / Fold change vs veh, TP53 / RFU, TNKS2 / Fold change vs veh, TNKS2 / RFU, ZFP14 / Fold change vs veh, ZFP14 / RFU, ACTR2 / Fold change vs veh, ACTR2 / RFU, PPP3R1 / Fold change vs veh, PPP3R1 / RFU, PIK3R1 / Fold change vs veh, PIK3R1 / RFU, HNRNPA1 / Fold change vs veh, HNRNPA1 / RFU, RNF170 / Fold change vs veh, RNF170 / RFU, ZNF28 / Fold change vs veh, ZNF28 / RFU, RNGTT / Fold change vs veh, RNGTT / RFU, OGT / Fold change vs veh, OGT / RFU, BRD1 / Fold change vs veh, BRD1 / RFU, MARS / Fold change vs veh, MARS / RFU, ZNF655 / Fold change vs veh, ZNF655 / RFU, FAHD1 / Fold change vs veh, FAHD1 / RFU, BDP1 / Fold change vs veh, BDP1 / RFU, LRRCC1 / Fold change vs veh, LRRCC1 / RFU, ARID1A / Fold change vs veh, ARID1A / RFU, ZNF146 / Fold change vs veh, ZNF146 / RFU, ZNF330 / Fold change vs veh, ZNF330 / RFU, GPN3 / Fold change vs veh, GPN3 / RFU, C9orf123 / Fold change vs veh, C9orf123 / RFU, N4BP2L2 / Fold change vs veh, N4BP2L2 / RFU, ARFIP1 / Fold change vs veh, ARFIP1 / RFU, FAM179B / Fold change vs veh, FAM179B / RFU, BCL10 / Fold change vs veh, BCL10 / RFU, UHRF1BP1L / Fold change vs veh, UHRF1BP1L / RFU, BET1 / Fold change vs veh, BET1 / RFU, CNOT2 / Fold change vs veh, CNOT2 / RFU, ZNF268 / Fold change vs veh, ZNF268 / Fold change vs veh, ZNF507 / RFU, DGCR2 / Fold change vs veh, DGCR2 / RFU, WDSUB1 / Fold change vs veh, WDSUB1 / Fold change vs veh, HSP90B1 /// MIR3652 / RFU, ADSS / Fold change vs veh, ADSS / RFU, GK / Fold change vs veh, GK / RFU, ZNF148 / Fold change vs veh, ZNF148 / RFU, TAF9 / Fold change vs veh, TAF9 / RFU, SLC1A5 / Fold change vs veh, SLC1A5 / RFU, SLMO2 / Fold change vs veh, SLMO2 / RFU, ABCC4 / Fold change vs veh, ABCC4 / RFU, LOC101060439 /// RAP1B / Fold change vs veh, LOC101060439 /// RAP1B / RFU, RFX7 / Fold change vs veh, RFX7 / RFU, GTPBP10 / Fold change vs veh, GTPBP10 / RFU, CNEP1R1 / Fold change vs veh, CNEP1R1 / RFU, BIVM-ERCC5 /// ERCC5 / Fold change vs veh, BIVM-ERCC5 /// ERCC5 / RFU, ILF3 / Fold change vs veh, ILF3 / RFU 11762660_at / Fold change /veh 11762660_at / RFU VCAN (11757783_s_at) / Fold change /veh VCAN (11757783_s_at) / RFU DDX43 (11728927_at) / Fold change /veh DDX43 (11728927_at) / RFU KRT8 (11758188_x_at) / Fold change /veh KRT8 (11758188_x_at) / RFU NKD1 (11759106_at) / Fold change /veh NKD1 (11759106_at) / RFU SRD5A1 (11742802_a_at) / Fold change /veh SRD5A1 (11742802_a_at) / RFU TPSAB1 /// TPSB2 (11721975_s_at) / Fold change /veh TPSAB1 /// TPSB2 (11721975_s_at) / RFU GSTM3 (11746129_a_at) / Fold change /veh GSTM3 (11746129_a_at) / RFU IL23R (11737362_x_at) / Fold change /veh IL23R (11737362_x_at) / RFU TMEM51 (11727254_a_at) / Fold change /veh TMEM51 (11727254_a_at) / RFU PIWIL2 (11732686_x_at) / Fold change /veh PIWIL2 (11732686_x_at) / RFU ORM1 (11744905_x_at) / Fold change /veh ORM1 (11744905_x_at) / RFU CCDC152 (11743942_at) / Fold change /veh CCDC152 (11743942_at) / RFU ECM1 (11717891_a_at) / Fold change /veh ECM1 (11717891_a_at) / RFU IL23R (11748794_a_at) / Fold change /veh IL23R (11748794_a_at) / RFU TNFAIP8L3 (11732012_x_at) / Fold change /veh TNFAIP8L3 (11732012_x_at) / RFU MBOAT4 (11741988_at) / Fold change /veh MBOAT4 (11741988_at) / RFU 11764193_at / Fold change /veh 11764193_at / RFU TMEM53 (11763286_at) / Fold change /veh TMEM53 (11763286_at) / RFU MAGEB2 (11727129_at) / Fold change /veh MAGEB2 (11727129_at) / RFU TMEM200A (11744735_a_at) / Fold change /veh TMEM200A (11744735_a_at) / RFU CCDC152 (11751479_a_at) / Fold change /veh CCDC152 (11751479_a_at) / RFU FAM211A (11726209_a_at) / Fold change /veh FAM211A (11726209_a_at) / RFU RGS16 (11746705_a_at) / Fold change /veh RGS16 (11746705_a_at) / RFU VCAN (11755009_s_at) / Fold change /veh VCAN (11755009_s_at) / RFU RHOB (11743442_s_at) / Fold change /veh RHOB (11743442_s_at) / RFU RGS16 (11720943_a_at) / Fold change /veh RGS16 (11720943_a_at) / RFU RGS16 (11720944_at) / Fold change /veh RGS16 (11720944_at) / RFU, VPS4B / Fold change vs veh, VPS4B / RFU, CREB1 / Fold change vs veh, CREB1 / RFU, DNAJC13 / Fold change vs veh, DNAJC13 / RFU, GNAQ / Fold change vs veh, GNAQ / RFU, CDK5R1 / Fold change vs veh, CDK5R1 / RFU, ZRANB3 / Fold change vs veh, ZRANB3 / RFU, CUL4A / Fold change vs veh, CUL4A / RFU, CCNY / Fold change vs veh, CCNY / RFU, UFL1 / Fold change vs veh, UFL1 / RFU, COG3 / Fold change vs veh, COG3 / RFU, DIAPH2 / Fold change vs veh, DIAPH2 / RFU, SKA2 / Fold change vs veh, SKA2 / RFU, AFF3 / Fold change vs veh, AFF3 / RFU, LMF1 / Fold change vs veh, LMF1 / RFU, IPO11 / Fold change vs veh, IPO11 / RFU, DFFB / Fold change vs veh, DFFB / RFU, FOXP1 / Fold change vs veh, FOXP1 / RFU, CARD8 / Fold change vs veh, CARD8 / RFU, STRN3 / Fold change vs veh, STRN3 / RFU, ADK / Fold change vs veh, ADK / RFU, RASSF2 / Fold change vs veh, RASSF2 / RFU, WIPF1 / Fold change vs veh, WIPF1 / RFU, LARP1B / Fold change vs veh, LARP1B / RFU, RASA1 / Fold change vs veh, RASA1 / RFU, RB1 / Fold change vs veh, RB1 / RFU, PPFIA1 / Fold change vs veh, PPFIA1 / RFU, MAT2A / Fold change vs veh, MAT2A / RFU, CCT5 / Fold change vs veh, CCT5 / RFU, WDR92 / Fold change vs veh, WDR92 / RFU, CUX1 / Fold change vs veh, CUX1 / RFU, TTC7A / Fold change vs veh, TTC7A / RFU, TMEM135 / Fold change vs veh, TMEM135 / RFU, DEPTOR / Fold change vs veh, DEPTOR / RFU, CPM / Fold change vs veh, CPM / RFU, DNAJB6 / Fold change vs veh, DNAJB6 / RFU, CACNA2D3 / Fold change vs veh, CACNA2D3 / RFU, DTX4 / Fold change vs veh, DTX4 / RFU, TFCP2 / Fold change vs veh, TFCP2 / RFU, GMCL1 /// GMCL1P1 / Fold change vs veh, GMCL1 /// GMCL1P1 / RFU, AEBP2 / Fold change vs veh, AEBP2 / RFU, SNHG1 /// SNORD22 /// SNORD25 /// SNORD26 /// SNORD27 /// SNORD28 /// SNORD29 /// SNORD31 / Fold change vs veh, SNHG1 /// SNORD22 /// SNORD25 /// SNORD26 /// SNORD27 /// SNORD28 /// SNORD29 /// SNORD31 / Fold change (Aza/veh), C12orf56 (ProbeSet 11735607_a_at) / Fold change (ACY-1035/veh), C12orf56 (ProbeSet 11735607_a_at) / Fold change (Aza/veh), FGFR1OP (ProbeSet 11751329_s_at) / Fold change (ACY-1035/veh), FGFR1OP (ProbeSet 11751329_s_at) / Fold change (Aza/veh), VPS36 (ProbeSet 11739960_a_at) / Fold change (ACY-1035/veh), VPS36 (ProbeSet 11739960_a_at) / RFU SYPL1 (11715823_x_at) / Fold change /veh SYPL1 (11715823_x_at) / RFU IGFBP7 (11715501_s_at) / Fold change /veh IGFBP7 (11715501_s_at) / RFU REEP3 (11722064_at) / Fold change /veh REEP3 (11722064_at) / RFU IGLL1 (11728026_x_at) / Fold change /veh IGLL1 (11728026_x_at): dose or concentration left out as unconfirmed
Conditions: MV-4-11 cells, 48 hours

Nc1ccc(-c2cccs2)cc1NC(=O)c1ccc2c(c1)cc(C1CC1)n2CCN1CCOCC1 [ACY-1035]
RFU KRTAP5-7 /// NADSYN1 (11734609_at): 11.39 RFU
